Patent publication US20230087844A1, “USE OF N2-QUINCLINE OR ISOQUINOLINE SUBSTITUTED PURINE DERIVATIVES IN CANCER TREATMENT” (SHANGHAI HUAYU BIOTECHNOLOGY CO., LTD., priority 2020, published 2023)
Marks after values point to notes of the source that are not given here.

Legend:
[1] = tested on: MV-4-11 cells; experiment: MV-4-11 AML xenograft in mice (Example 7); assay type: in vivo, BALB-cA nude mice; conditions: D0-20; for Complete remission: number of mice, N 6
Experimental: Mice body weights and tumor sizes were measured twice a week. The tumor volume, T/C and TGI (Tumor growth inhibition=(average tumor volume in vehicle group-average tumor volume in administration group)/average tumor volume in vehicle group ×100%) were calculated. Mice were sacrificed on Day 21.

[2] = tested on: Colon26 murine colon cancer cells; experiment: Colon26 colon cancer growth in mice; assay type: in vivo, F1 mice; conditions: for TGI / Tumor weight: Day 8
Experimental: F1 mice, 18-22 g, purchased from Shanghai Bi-Kai Laboratory Animal Co., Ltd, were subcutaneously inoculated with Colon26 murine colon cancer cells (from Cell Bank, Chinese Academy of Sciences) at the right axilla. […] Tumor growth inhibition (TGI) was calculated.

[3] = tested on: S180 murine sarcoma cancer cells; experiment: S180 sarcoma growth in mice; conditions: 30 mg/kg I.P., D1-7
Experimental: On Day 8, the mice were weighed and sacrificed, and the tumors were collected and weighed.
Tumor growth inhibition (TGI) was calculated by the following formula. Tumor growth inhibition=(average tumor weight in vehicle group-average tumor weight in administration group)/average tumor weight in vehicle group×100%

[4] = tested on: A549 human non-small cell lung cancer cells; experiment: A549 non-small cell lung cancer xenograft in mice; conditions: 5 mg/kg I.P., D0, 3
Experimental: Mice body weights and tumor sizes were measured 2 to 3 times a week. The tumor volume (V) was calculated as (length× width^2)/2. T/C (%) was calculated as (T-T0)/(C-C0)×100, wherein T and C represented the tumor volumes in the administration group and the vehicle group respectively at the end of the experiment, while T0 and C0 represented the tumor volumes in the administration group and the vehicle group respectively at the beginning of the experiment. And RTV was calculated as (Tumor volume at Day N/Tumor volume at Day 0). Mice were sacrificed on Day-14.
BALB/cA-nude mice, 5-6 weeks old, purchased from Shanghai SLAC Laboratory Animal Co., Ltd, were subcutaneously inoculated with A549 human non-small cell lung cancer cells (from ATCC).
(§7) Mice body weights and tumor sizes were measured 2 to 3 times a week. The tumor volume, T/C and RTV were calculated as described above. Mice were sacrificed on Day 18.

[5] = tested on: SGC-7901 human gastric cancer cells; experiment: SGC-7901 gastric cancer xenograft in mice; conditions: 5 mg/kg I.P., D0, 6
Experimental: Mice body weights and tumor sizes were measured 2 to 3 times a week. The tumor volume (V) was calculated as (length× width^2)/2. T/C (%) was calculated as (T-T0)/(C-C0)×100, wherein T and C represented the tumor volumes in the administration group and the vehicle group respectively at the end of the experiment, while T0 and C0 represented the tumor volumes in the administration group and the vehicle group respectively at the beginning of the experiment. And RTV was calculated as (Tumor volume at Day N/Tumor volume at Day 0).
BALB/cA-nude mice, 5-6 weeks old, purchased from Shanghai SLAC Laboratory Animal Co., Ltd, were subcutaneously inoculated with SGC-7901 human gastric cancer cells (from Cell Bank, Chinese Academy of Sciences).
as §7

[6] = tested on: MV-4-11 cells; experiment: MV-4-11 AML xenograft in mice, combination with daunorubicin (Example 8); assay type: in vivo, BALB-cA nude mice; conditions: 2 mg/kg I.V., D0-10
Experimental: Mice body weights and tumor sizes were measured twice a week. The tumor volume, T/C and TGI (Tumor growth inhibition=(average tumor volume in vehicle group-average tumor volume in administration group)/average tumor volume in vehicle group ×100%) were calculated. Mice were sacrificed on Day 21. Female BALB-cA nude mice, 6-7 weeks old, purchased from Shanghai Ling-chang Biotech Co., Ltd, were subcutaneously inoculated with MV-4-11 cells (from ATCC). […] Mice body weights and tumor sizes were measured twice a week. The tumor volume, T/C and tumor volume based TGI were calculated as described above. Mice were sacrificed on Day 11.

[7] = tested on: H526; experiment: Tumor cell death by MTT, H526; assay type: cell-based, human; conditions: 10 μM
Experimental: (§1) The in vitro inhibitory effect of Compound A alone or in combination with a PARP inhibitor on tumor cell growth was tested using human small cell lung cancer (SCLC) cell lines, including H69 (ATCC® HTB-119™), H526 (ATCC® CRL-5811™) and H446 (TCHu196, National Collection of Authenticated Cell Cultures).
(§2) Briefly, the cells were seeded into a 96-well dish with RPMI-1640 (10-040-CV, Coming cellgro) containing 10% fetal bovine serum (10270-106, GIBCO), 1% penicillin and 1% streptomycin (BaSalMedia, S110JV), at an initial density of 3×10^3 cells per well ([…]), and cultured at a 37° C., 5% CO2 humidified incubator for 24 hours. Then, the culture media were added with Compound A (final concentration at 20 nM), olaparib (APEXBIO, A4154, a PARP inhibitor, final concentration at 10 μM), Compound A + olaparib (final concentrations at20 nM and 10 μM), or PBS (vehicle), respectively, and the cells were cultured for 48 hours. Then, cell viability was determined by MTT. The test was done in triplicate.
(§3) Cell death rate was calculated by the following formula.
(§4) Cell death rate=[1−(ODtest-ODvehicle)]×100%
(§5) Cell death rates were analyzed using student's t-test, and group differences were deemed statistically significant when the p-value was lower than 0.05. Zheng-Jun Jin's Q value was calculated using the formula Q=EA+B/(EA+EB-EA×EB) to assess the combined effect of Compound A and the PARP inhibitor, wherein EA+B, EA, and EB referred to the cell death rates caused by the combined treatment, Compound A treatment and PARP inhibitor treatment, respectively. A Q value higher than 1.15 meant a synergistic […] effect.
(§6) Another PARP inhibitor, rucaparib (APEXBIO, A4156), was tested alone or with Compound A for inhibitory effect on tumor cell growth, following the protocol of Example 9.

[8] = tested on: H69; experiment: Tumor cell death by MTT, H69; assay type: cell-based, human; conditions: 10 μM
Experimental: as §1, §2, §3, §4, §5, §6

[9] = tested on: H446; experiment: Tumor cell death by MTT, H446; assay type: cell-based, human; conditions: 10 μM
Experimental: as §1, §2, §3, §4, §5, §6

[10] = tested on: Ls-174t human colon cancer cells; experiment: Ls-174t colon cancer xenograft in mice; assay type: in vivo, BALB/cA-nude mice; conditions: 153 mg/kg I.P., D0-4, 7-11
Source text: Mice were sacrificed on Day-14.

## CC[C@H](Nc1ncnc2[nH]cnc12)c1nc2cccc(F)c2c(=O)n1-c1ccccc1 [CAL 101, reference compound]
[1]; 90 mg/kg P.O.
  T/C (%) D21: 50%
  TGI (%) D21: 50%
  Tumor volume D0: 79.6 ± 3.1 mm^3
  Tumor volume D21: 442.2 ± 93.8 mm^3
  Complete remission: 0
[1]; 180 mg/kg P.O.
  T/C (%) D21: 39%
  TGI (%) D21: 61%
  Tumor volume D0: 78.9 ± 1.9 mm^3
  Tumor volume D21: 361.7 ± 93.8 mm^3
  Complete remission: 0

## O=P1(N(CCCl)CCCl)NCCCO1 (stereo not drawn) [CTX, cyclophosphamide, reference compound]
[2]; 30 mg/kg I.V., D1-7
  Body weight (without tumor) at D8: 21.22 g
  TGI: 79.00%
  Tumor weight: 0.43 g
[3]
  Body weight (without tumor) D1: 21.8 g
  Body weight (without tumor) D8: 26.8 g
  Tumor weight on Day 8: 0.60 ± 0.18 g
[3]; tumor weight, Day 8
  TGI: 68.8* %

## N.N.[Cl][Pt][Cl] [Cisplatin, cisplatin, reference compound]
[4]
  Body weight (with tumor) D0: 16.7 g
  Body weight (with tumor) D18: 15.3 g
  RTV at D18: 8.89 ± 5.39
  Tumor volume D0: 110 ± 12 mm^3
  Tumor volume D18: 944 ± 536 mm^3
[4]; D18
  T/C: 33.7* %
[5]
  Body weight (with tumor) D0: 18.4 g
  Body weight (with tumor) D18: 16.0 g
  RTV at D18: 2.85 ± 1.52
  Tumor volume D0: 127 ± 24 mm^3
  Tumor volume D18: 366 ± 201 mm^3
[5]; D18
  T/C: 34.9* %

## COc1cccc2c1C(=O)c1c(O)c3c(c(O)c1C2=O)C[C@@](O)(C(C)=O)C[C@@H]3O[C@H]1C[C@H](N)[C@H](O)[C@H](C)O1 [Daunorubicin, daunorubicin, reference compound]
[6]; D11
  T/C: 38%
  TGI: 62%
[6]; in mm³
  Tumor volume D0: 152.9
  Tumor volume D11: 1167.3

## Nc1ccn([C@@H]2O[C@H](CO)[C@@H](O)C2(F)F)c(=O)n1 [Gemcitabine, gemcitabine]
[2]; 10 mg/kg I.V., D1
  Body weight (without tumor) at D8: 22.31 g
  TGI: 57.51%
  Tumor weight: 0.86 g
[2]; 20 mg/kg IV, D1
  Body weight (without tumor) at D8: 22.35 g
  TGI: 81.53%
  Tumor weight: 0.38 g

## O=C(c1cc(Cc2n[nH]c(=O)c3ccccc23)ccc1F)N1CCN(C(=O)C2CC2)CC1 [Olaparib, olaparib, reference compound]
[7]; 48 hours, Table 10
  Cell Death Rate/% 1: 5.25%
  Cell Death Rate/% 2: 4.92%
  Cell Death Rate/% 3: 5.13%
  Cell Death Rate/% mean: 5.10%
[8]; 48 hours, Table 10
  Cell Death Rate/% 1: 6%
  Cell Death Rate/% 2: 6.25%
  Cell Death Rate/% 3: 6.54%
  Cell Death Rate/% mean: 6.26%
[9]; 48 hours, Table 10
  Cell Death Rate/% 1: 12.01%
  Cell Death Rate/% 2: 12.55%
  Cell Death Rate/% 3: 12.24%
  Cell Death Rate/% mean: 12.27%

## Nc1nc2[nH]cc(CCc3ccc(C(=O)N[C@@H](CCC(=O)O)C(=O)O)cc3)c2c(=O)[nH]1 [Pemetrexed disodium, pemetrexed disodium, reference compound]
[10]
  Body weight (without tumor) D0: 24.0 g
  Body weight (without tumor) D14: 15.3 g
  RTV at D14: 9.14 ± 2.86
  Tumor volume D0: 138 ± 33 mm^3
  Tumor volume D14: 1209 ± 244 mm^3
[10]; D14
  T/C: 43.3* %

## CNCc1ccc(-c2[nH]c3cc(F)cc4c3c2CCNC4=O)cc1 [Rucaparib, rucaparib, reference compound]
[7]; Example 10, Table 11
  Cell Death Rate/% 1: 6.73%
  Cell Death Rate/% 2: 6.57%
  Cell Death Rate/% 3: 6.19%
  Cell Death Rate/% mean: 6.50%
[8]; Example 10, Table 11
  Cell Death Rate/% 1: 7.51%
  Cell Death Rate/% 2: 7.3%
  Cell Death Rate/% 3: 8.11%
  Cell Death Rate/% mean: 7.64%
[9]; Example 10, Table 11
  Cell Death Rate/% 1: 14%
  Cell Death Rate/% 2: 13.79%
  Cell Death Rate/% 3: 14.48%
  Cell Death Rate/% mean: 14.09%
